# Test results published in patent publication US12043645B2, “Adenosine analogs as methyltransferase inhibitors for treating cancer” (MEMORIAL SLOAN KETTERING CANCER CENTER, priority 2017, dated 2024).
# Legend:
# Format in all cases: cell-based
# [1] = system: MCF-7 cells (BAF155 and PABP1 biomarkers); assay: EC50 assay: western blot of BAF155 and PABP1 biomarkers in MCF-7 cells; details: Homo sapiens, MCF7, 48 h, two days treatment
# Description: (§1) 1˜2×10e^5 MCF-7 cells or MDA-MB-231 cells per were seeded into 6-well plate. Two days later, cells were treated with inhibitors or control for additional two days. Then cells were collected by trypsinization, washed with Dulbecco's phosphate buffer saline and lysed by suspension in lysis buffer. The suspension was kept on ice for 30 min to achieve complete lysis or the suspension can be sonicated to achieve complete lysis. After centrifugation, supernatant were collected and total protein was quantified, and western blot samples were prepared with the SDS sample buffer Proteins were transferred to a nitrocellulose membrane for 1.5 hr at 350 mA at cold room. Membranes were blocked with 5% nonfat milk dissolved in PBST at room temperature for 1 hour and incubated overnight with primary antibody diluted in 5% nonfat milk dissolved in PBST at 4° C. Membranes were then washed with PBST for 10 min/each three times, and incubated with HRP-conjugated secondary antibody for 1 hour at room temperature, and washed with PBST for 10 min/each three times, and then detected by ECL reaction and X-ray film exposure. BAF155 and PABP1 were used as biomarkers to determine the EC50 values.
# [2] = system: MDA-MB-231 cells (BAF155 and PABP1 biomarkers); assay: EC50 assay: western blot of BAF155 and PABP1 biomarkers in MDA-MB-231 cells; details: Homo sapiens, 48 h, two days treatment
# Description: as §1
# [3] = system: HCC1954 breast cancer cells; assay: Transwell invasion assay
# Description: In another example, a compound's effect on cancer cell migration and invasion were evaluated in a transwell invasion assay. In one such example, addition of compound 6 in a concentration of 5 μM and 10 μM caused an approximately 50% and an approximately 75% reduction, respectively, of invasion of HCC1954 breast cancer cells in the assay.
SMILES,EC50 [1] [µM],EC50 [2] [µM],reduction of invasion of HCC1954 breast cancer cells ([3]; concentration of 5 μM),reduction of invasion of HCC1954 breast cancer cells ([3]; concentration of 10 μM)
COc1ccc(CCNC(=O)[C@@H](N)CC[C@H](CNCc2ccccc2)C[C@H]2O[C@@H](n3cnc4c(N)ncnc43)[C@@H](O)C2O)cc1 (stereo partly shown) [Example 1],15,,,
CC(=O)Oc1cc(C)cc(C)c1C(C)(C)CC(=O)N[C@@H](CC[C@H](CNCc1ccccc1)C[C@H]1O[C@@H](n2cnc3c(N)ncnc32)[C@@H](O)C1O)C(=O)O (stereo partly shown) [Example 2],10,,,
COc1ccc(CCNC(=O)[C@H](CC[C@H](CNCc2ccccc2)C[C@H]2O[C@@H](n3cnc4c(N)ncnc43)[C@@H](O)C2O)NC(=O)CC(C)(C)c2c(C)cc(C)cc2OC(C)=O)cc1 (stereo partly shown) [Example 3],< 5,,,
CC1=CC(=O)C(C(C)(C)CC(=O)N[C@@H](CC[C@H](CNCc2ccccc2)C[C@H]2O[C@@H](n3cnc4c(N)ncnc43)[C@@H](O)C2O)C(=O)O)=CC1=O (stereo partly shown) [Example 4],< 10,,,
COc1ccc(CCNC(=O)C(CC[C@H](CNCc2ccccc2)C[C@H]2O[C@@H](n3cnc4c(N)ncnc43)[C@@H](O)C2O)NC(=O)CC(C)(C)C2=C(C)C(=O)C(C)=C(C)C2=O)cc1 (stereo partly shown) [Example 6],,< 0.5,approximately 50%,approximately 75%
